Source: patent US11510886B2, “Metformin amino acid compounds and methods of using the same” (Laboratorios Silancs S.A. DE C.V., priority 2016, dated 2022)
Where two headings read alike, the source gives them in different places.

Legend:
[1] = STZ-diabetic male rats, mean ± SD; for Absolute body weight, Day −3 (before STZ administration): baseline before STZ and before first TI/RI administration; for Absolute body weight, Day −1 / Absolute body weight, Day −2 (distribution of groups): before first TI/RI administration
[2] = system: blood glucose level; test: Effect of metformin compounds on the glucokinetic profile after oral glucose overload; assay type: in vivo, Rat; settings: rat, 750 mg/kg referred to metformin base, mean ± SD; for Blood glucose level, 0.25 h post-glucose overload / Blood glucose level, 1 h post-glucose overload / Blood glucose level, 4 h post-glucose overload / Blood glucose level, pre-glucose overload: *p<0.05 vs vehicle; for Blood glucose level, 3 h post-glucose overload: *p<0.05, **p<0.01 vs vehicle
[3] = for Body weight (g) On administration day / Body weight (g) On distribution day / Body weight (g) On first administration day: Mean ± SD; for Body weight (g) On distribution day: before dosing
[4] = rat, in vivo, po, 250 mg/kg
[5] = system: rat model of streptozotocin-induced diabetes; test: Blood glucose levels in rat model of streptozotocin-induced diabetes, 14 days oral; settings: mean ± SD; for Blood glucose levels before TI/RI administration, Day −3 (before STZ administration): rats, baseline before STZ and before first TI/RI administration
[6] = Groups L-U, 750 mg/kg, first column of this head
[7] = Groups L-U, 750 mg/kg, second column of this head

Substance	Absolute body weight, Day −3 (before STZ administration) [1]	Absolute body weight, Day −1 [1]	Absolute body weight, Day −2 (distribution of groups) [1]	Blood glucose level, 0.25 h post-glucose overload [2]	Blood glucose level, 0.5 h post-glucose overload [2]	Blood glucose level, 1 h post-glucose overload [2]	Blood glucose level, 2 h post-glucose overload [2]	Blood glucose level, 3 h post-glucose overload [2]	Blood glucose level, 4 h post-glucose overload [2]	Blood glucose level, 6 h post-glucose overload [2]	Blood glucose level, pre-glucose overload [2]	Body weight (g) On administration day ([3]; Groups B-K, 250 mg/kg)	Body weight (g) On distribution day ([3]; Groups B-K, 250 mg/kg)	Body weight (g) On distribution day ([3]; Groups L-U, 750 mg/kg)	Body weight (g) On first administration day [3, 6]	Body weight (g) On first administration day [3, 7]	AUC(0-24) [4]	Cmax [4]	Metformin base concentration in plasma, 0.5 h post-administration [4]	Blood glucose levels before TI/RI administration, Day −3 (before STZ administration) [5]	further results
dimetformin aspartate	228.17 ± 10.17 g	205.23 ± 6.83 g	219.53 ± 13.36 g	96.00 ± 17.15 mg/dL	98.50 ± 13.70 mg/dL	103.75 ± 9.29 mg/dL	95.25 ± 8.77 mg/dL	92.00 ± 6.16 mg/dL	92.75 ± 4.11 mg/dL	89.75 ± 5.50 mg/dL	83.25 ± 14.89 mg/dL	188.42 ± 5.42 g	186.02 ± 5.04 g	192.05 ± 6.89 g	207.73 ± 9.57 g	197.30 ± 10.15 g	122.96 µg·h/mL	15500 ng/mL	12.43 ± 2.05 µg/mL	120.00 ± 2.65 mg/dL	Metformin base concentration in plasma, 1 h post-administration [4]: 15.50 ± 4.49 µg/mL; Metformin base concentration in plasma, 2 h post-administration [4]: 13.47 ± 3.13 µg/mL; Metformin base concentration in plasma, 4 h post-administration [4]: 6.05 ± 0.98 µg/mL; Metformin base concentration in plasma, 8 h post-administration [4]: 6.50 ± 1.57 µg/mL; Metformin base concentration in plasma, 24 h post-administration [4]: 0.22 ± 0.11 µg/mL; Blood glucose levels before TI/RI administration, Day −1 ([5]; STZ-diabetic rats, before first TI/RI administration, n.d. = all values beyond ULOD of glucometer (600 mg/dl), § n=1, ¢ n=2): 572.00^§ ± n.d.^§ mg/dL
diphenformin aspartate																				115.33 ± 10.02 mg/dL	
metformin threoninate	231.13 ± 10.20 g	207.33 ± 8.52 g	216.43 ± 8.74 g	110.33 ± 16.92 mg/dL	102.67 ± 8.02 mg/dL	101.67 ± 11.85 mg/dL	93.67 ± 10.69 mg/dL	91.67 ± 6.03 mg/dL	87.67 ± 2.08 mg/dL	89.33 ± 3.06 mg/dL	90.33 ± 12.34 mg/dL	193.13 ± 9.66 g	186.22 ± 10.13 g	188.55 ± 6.35 g	202.15 ± 5.48 g	194.20 ± 4.58 g	107.62 µg·h/mL	14300 ng/mL	8.81 ± 2.00 µg/mL	117.33 ± 14.05 mg/dL	mortality and clinical signs ([3]; glucokinetic groups, 750 mg/kg for five days): died during the study just after the fifth test item administration; Metformin base concentration in plasma, 1 h post-administration [4]: 14.30 ± 1.70 µg/mL; Metformin base concentration in plasma, 2 h post-administration [4]: 11.53 ± 2.61 µg/mL; Metformin base concentration in plasma, 4 h post-administration [4]: 11.43 ± 1.66 µg/mL; Metformin base concentration in plasma, 8 h post-administration [4]: 3.91 ± 0.33 µg/mL; Metformin base concentration in plasma, 24 h post-administration [4]: 0.23 ± 0.08 µg/mL
